Data: PubChem BioAssay (NCI)
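Exposure lasted 48 hours, with cells grown in 96-well plates and compounds tested at five concentrations. TGI denotes the concentration required for complete inhibition of growth.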

Assays:
Assay in all cases: growth of human tumour cells (NCI), 48 h
MDA-MB-435 = test system: MDA-MB-435
NCI-H460 lung = test system: NCI-H460 lung
PC-3 prostate = test system: PC-3 prostate
RXF 393 renal = test system: RXF 393 renal
BT-549 breast = test system: BT-549 breast
SW-620 colon = test system: SW-620 colon
CAKI-1 renal = test system: CAKI-1 renal
HT29 colon = test system: HT29 colon
SNB-75 CNS = test system: SNB-75 CNS
NCI-H522 lung = test system: NCI-H522 lung
IGROV1 ovarian = test system: IGROV1 ovarian
SK-MEL-5 melanoma = test system: SK-MEL-5 melanoma
OVCAR-4 ovarian = test system: OVCAR-4 ovarian
A549 NSCLC = test system: A549 NSCLC
HS 578T breast = test system: HS 578T breast
HL-60(TB) leukemia = test system: HL-60(TB) leukemia
LOX IMVI melanoma = test system: LOX IMVI melanoma
U251 CNS = test system: U251 CNS
HCT-116 colon = test system: HCT-116 colon
SF-268 CNS = test system: SF-268 CNS
MOLT-4 leukemia = test system: MOLT-4 leukemia
NCI/ADR-RES ovarian = test system: NCI/ADR-RES ovarian
SF-295 CNS = test system: SF-295 CNS
SR leukemia = test system: SR leukemia
786-0 renal = test system: 786-0 renal
RPMI-8226 leukemia = test system: RPMI-8226 leukemia
M14 melanoma = test system: M14 melanoma
HOP-62 NSCLC = test system: HOP-62 NSCLC
EKVX NSCLC = test system: EKVX NSCLC
HOP-92 NSCLC = test system: HOP-92 NSCLC
SF-539 CNS = test system: SF-539 CNS
K-562 leukemia = test system: K-562 leukemia
MCF7 breast = test system: MCF7 breast
OVCAR-8 ovarian = test system: OVCAR-8 ovarian
SK-MEL-28 melanoma = test system: SK-MEL-28 melanoma
KM12 colon = test system: KM12 colon
MDA-N = test system: MDA-N
ACHN renal = test system: ACHN renal
MDA-MB-231 breast = test system: MDA-MB-231 breast
HCT-15 colon = test system: HCT-15 colon
T-47D breast = test system: T-47D breast
OVCAR-3 ovarian = test system: OVCAR-3 ovarian
TK-10 renal = test system: TK-10 renal
OVCAR-5 ovarian = test system: OVCAR-5 ovarian
A498 renal = test system: A498 renal
UACC-257 melanoma = test system: UACC-257 melanoma
SK-MEL-2 melanoma = test system: SK-MEL-2 melanoma
NCI-H226 lung = test system: NCI-H226 lung
DU-145 prostate = test system: DU-145 prostate
UO-31 renal = test system: UO-31 renal
NCI-H23 lung = test system: NCI-H23 lung
SK-OV-3 ovarian = test system: SK-OV-3 ovarian
MALME-3M melanoma = test system: MALME-3M melanoma
SN12C renal = test system: SN12C renal
CCRF-CEM leukemia = test system: CCRF-CEM leukemia
HCC-2998 colon = test system: HCC-2998 colon
UACC-62 melanoma = test system: UACC-62 melanoma
SNB-19 CNS = test system: SNB-19 CNS
COLO 205 colon = test system: COLO 205 colon

Which TGI (MDA-MB-435) does the source give for `Cc1n[nH]c(=S)n1/N=C/c1ccc(-c2ccc(Cl)cc2)o1` here?
The TGI was over 100 µM.

And the TGI (NCI-H460 lung)?
The TGI was over 100 µM.

What about the TGI (PC-3 prostate) of the same compound?
Its TGI is over 100 µM.

What about the TGI (RXF 393 renal) of the same compound?
The TGI was over 100 µM.

What about the TGI (BT-549 breast) of the same compound?
The TGI was over 100 µM.

What about the TGI (SW-620 colon) of the same compound?
The TGI was over 100 µM.

And the TGI (CAKI-1 renal)?
Its TGI is over 100 µM.

And the TGI (HT29 colon)?
The TGI was over 100 µM.

And the TGI (SNB-75 CNS)?
Its TGI is 82.9 µM.

And the TGI (NCI-H522 lung)?
Its TGI is over 100 µM.

What about the TGI (IGROV1 ovarian) of the same compound?
Its TGI is over 100 µM.

And the TGI (SK-MEL-5 melanoma)?
The TGI was over 100 µM.

And the TGI (OVCAR-4 ovarian)?
Its TGI is over 100 µM.

And the TGI (A549 NSCLC)?
Its TGI is over 100 µM.

And the TGI (HS 578T breast)?
The TGI was over 100 µM.

And the TGI (HL-60(TB) leukemia)?
The TGI was over 100 µM.

And the TGI (LOX IMVI melanoma)?
The TGI was over 100 µM.

What about the TGI (U251 CNS) of the same compound?
The TGI was over 100 µM.

What about the TGI (HCT-116 colon) of the same compound?
The TGI was over 100 µM.

And the TGI (SF-268 CNS)?
The TGI was over 100 µM.

What about the TGI (MOLT-4 leukemia) of the same compound?
Its TGI is over 100 µM.

What about the TGI (NCI/ADR-RES ovarian) of the same compound?
The TGI was over 100 µM.

What about the TGI (SF-295 CNS) of the same compound?
Its TGI is over 100 µM.

And the TGI (SR leukemia)?
Its TGI is over 100 µM.

What about the TGI (786-0 renal) of the same compound?
Its TGI is over 100 µM.

And the TGI (RPMI-8226 leukemia)?
Its TGI is over 100 µM.

And the TGI (M14 melanoma)?
Its TGI is over 100 µM.

And the TGI (HOP-62 NSCLC)?
Its TGI is over 100 µM.

What about the TGI (EKVX NSCLC) of the same compound?
Its TGI is over 100 µM.

What about the TGI (HOP-92 NSCLC) of the same compound?
Its TGI is over 100 µM.

What about the TGI (SF-539 CNS) of the same compound?
The TGI was over 100 µM.

And the TGI (K-562 leukemia)?
Its TGI is over 100 µM.

And the TGI (MCF7 breast)?
Its TGI is over 100 µM.

And the TGI (OVCAR-8 ovarian)?
Its TGI is over 100 µM.

What about the TGI (SK-MEL-28 melanoma) of the same compound?
Its TGI is over 100 µM.

And the TGI (KM12 colon)?
Its TGI is over 100 µM.

And the TGI (MDA-N)?
The TGI was over 100 µM.

What about the TGI (ACHN renal) of the same compound?
Its TGI is over 100 µM.

And the TGI (MDA-MB-231 breast)?
Its TGI is over 100 µM.

And the TGI (HCT-15 colon)?
Its TGI is over 100 µM.

What about the TGI (T-47D breast) of the same compound?
Its TGI is over 100 µM.

What about the TGI (OVCAR-3 ovarian) of the same compound?
The TGI was over 100 µM.

And the TGI (TK-10 renal)?
Its TGI is over 100 µM.

And the TGI (OVCAR-5 ovarian)?
Its TGI is over 100 µM.

And the TGI (A498 renal)?
The TGI was over 100 µM.

What about the TGI (UACC-257 melanoma) of the same compound?
Its TGI is over 100 µM.

What about the TGI (SK-MEL-2 melanoma) of the same compound?
Its TGI is over 100 µM.

And the TGI (NCI-H226 lung)?
The TGI was over 100 µM.

What about the TGI (DU-145 prostate) of the same compound?
Its TGI is over 100 µM.

And the TGI (UO-31 renal)?
Its TGI is over 100 µM.

What about the TGI (NCI-H23 lung) of the same compound?
The TGI was over 100 µM.

With `O=C1CSC(c2cccc(Cl)c2)N1c1ccc(-n2c(-c3ccccc3)nc3ccccc3c2=O)cc1` (stereo unspecified) as the compound, how does the TGI (MDA-MB-435) read?
The TGI was over 100 µM.

And the TGI (NCI-H460 lung)?
Its TGI is over 100 µM.

What about the TGI (PC-3 prostate) of the same compound?
The TGI was over 100 µM.

What about the TGI (BT-549 breast) of the same compound?
The TGI was over 100 µM.

And the TGI (SW-620 colon)?
The TGI was over 100 µM.

And the TGI (SK-OV-3 ovarian)?
The TGI was over 100 µM.

And the TGI (CAKI-1 renal)?
Its TGI is over 100 µM.

What about the TGI (HT29 colon) of the same compound?
The TGI was over 100 µM.

What about the TGI (NCI-H522 lung) of the same compound?
The TGI was over 100 µM.

And the TGI (IGROV1 ovarian)?
The TGI was over 100 µM.

What about the TGI (SK-MEL-5 melanoma) of the same compound?
Its TGI is over 100 µM.

And the TGI (OVCAR-4 ovarian)?
The TGI was 62.9 µM.

What about the TGI (A549 NSCLC) of the same compound?
The TGI was over 100 µM.

What about the TGI (HS 578T breast) of the same compound?
The TGI was over 100 µM.

What about the TGI (MALME-3M melanoma) of the same compound?
The TGI was over 100 µM.

What about the TGI (HL-60(TB) leukemia) of the same compound?
Its TGI is over 100 µM.

What about the TGI (SN12C renal) of the same compound?
Its TGI is over 100 µM.

And the TGI (LOX IMVI melanoma)?
Its TGI is over 100 µM.

And the TGI (U251 CNS)?
Its TGI is over 100 µM.

And the TGI (HCT-116 colon)?
Its TGI is over 100 µM.

What about the TGI (SF-268 CNS) of the same compound?
The TGI was over 100 µM.

What about the TGI (MOLT-4 leukemia) of the same compound?
Its TGI is over 100 µM.

And the TGI (NCI/ADR-RES ovarian)?
The TGI was over 100 µM.

What about the TGI (CCRF-CEM leukemia) of the same compound?
The TGI was over 100 µM.

What about the TGI (SF-295 CNS) of the same compound?
The TGI was over 100 µM.

And the TGI (SR leukemia)?
Its TGI is over 100 µM.

And the TGI (786-0 renal)?
Its TGI is over 100 µM.

What about the TGI (RPMI-8226 leukemia) of the same compound?
The TGI was over 100 µM.

What about the TGI (HOP-62 NSCLC) of the same compound?
The TGI was over 100 µM.

And the TGI (EKVX NSCLC)?
Its TGI is over 100 µM.

And the TGI (HOP-92 NSCLC)?
Its TGI is over 100 µM.

And the TGI (SF-539 CNS)?
The TGI was over 100 µM.

And the TGI (K-562 leukemia)?
Its TGI is over 100 µM.

What about the TGI (MCF7 breast) of the same compound?
The TGI was over 100 µM.

What about the TGI (OVCAR-8 ovarian) of the same compound?
The TGI was over 100 µM.

What about the TGI (SK-MEL-28 melanoma) of the same compound?
The TGI was over 100 µM.

What about the TGI (HCC-2998 colon) of the same compound?
The TGI was over 100 µM.

And the TGI (KM12 colon)?
Its TGI is over 100 µM.

And the TGI (MDA-N)?
The TGI was over 100 µM.

What about the TGI (ACHN renal) of the same compound?
The TGI was over 100 µM.

What about the TGI (UACC-62 melanoma) of the same compound?
The TGI was over 100 µM.

And the TGI (MDA-MB-231 breast)?
Its TGI is over 100 µM.

What about the TGI (HCT-15 colon) of the same compound?
The TGI was over 100 µM.

And the TGI (SNB-19 CNS)?
The TGI was over 100 µM.

And the TGI (COLO 205 colon)?
The TGI was over 100 µM.

What about the TGI (T-47D breast) of the same compound?
Its TGI is over 100 µM.

And the TGI (OVCAR-3 ovarian)?
The TGI was over 100 µM.

What about the TGI (TK-10 renal) of the same compound?
The TGI was over 100 µM.

And the TGI (OVCAR-5 ovarian)?
The TGI was over 100 µM.

And the TGI (A498 renal)?
The TGI was over 100 µM.

And the TGI (UACC-257 melanoma)?
The TGI was over 100 µM.

What about the TGI (SK-MEL-2 melanoma) of the same compound?
Its TGI is over 100 µM.

And the TGI (DU-145 prostate)?
The TGI was over 100 µM.

What about the TGI (UO-31 renal) of the same compound?
The TGI was 24.7 µM.

And the TGI (NCI-H23 lung)?
The TGI was over 100 µM.
